Laboratory results from US4705799A, “Aminomethyl oxooxazolidinyl benzenes useful as antibacterial agents” (E. I. Du Pont de Nemours and Company, priority 1985, dated 1987).
≈ marks a conversion by molar mass, not a printed value.

Experiments:
Escherichia coli [1] = assay: In vivo efficacy of orally administered compounds in mouse intraperitoneal infections; settings: 168 h; mouse i.p. Escherichia coli infection; oral; dosed at infection and 4 h post-infection; 7 days; read-out: ED50 (50 percent effective dose)
Staphylococcus aureus [2] = assay: as above; settings: Staphylococcus aureus, po, 168 h, mouse i.p. Staphylococcus aureus infection; oral; dosed at infection and 4 h post-infection; 7 days; read-out: ED50 (50 percent effective dose)
[3] = test system: Staphylococcus epidermidis; assay: In vitro broth dilution minimal inhibitory concentration (standard microdilution method); assay type: cell-based; settings: 24 h, Mueller-Hinton broth, 24-hour, read-out: Microdilution Broth MIC
Escherichia coli [4] = assay: In vivo efficacy of compounds administered subcutaneously in mouse intraperitoneal infections; settings: sc, 168 h; mouse i.p. Escherichia coli infection; subcutaneous; dosed at infection and 4 h post-infection; 7 days; read-out: ED50 (50 percent effective dose)
Staphylococcus aureus [5] = assay: as above; settings: sc, 168 h; mouse i.p. Staphylococcus aureus infection; subcutaneous; dosed at infection and 4 h post-infection; 7 days; read-out: ED50 (50 percent effective dose)
Escherichia coli [6] = assay: In vitro broth dilution minimal inhibitory concentration (standard microdilution method); assay type: cell-based; settings: Escherichia coli; Mueller-Hinton broth; 24-hour; read-out: Microdilution Broth MIC

Structure (SMILES) | ED50 (Escherichia coli [1]) [mg/kg] | ED50 (Staphylococcus aureus [2]) [mg/kg] | MIC [3] [µg/mL] | ED50 (Escherichia coli [4]) [mg/kg] | ED50 (Staphylococcus aureus [5]) [mg/kg] | MIC (Escherichia coli [6]) [µg/mL]
CCCCCCN(CC1CN(c2ccc(S(C)(=O)=O)cc2)C(=O)O1)C(C)=O (racemic) [Example 122, (dl)-N-Hexyl-N-[3-[4-(methylsulfonyl)phenyl]-2-oxooxazolidin-5-ylmethyl]acetamide] | > 120 | 48.4 | > 200 | > 120 | 16.3 | > 200
CC(=O)N(CC1CN(c2ccc(S(C)(=O)=O)cc2)C(=O)O1)C1CCCCC1 (racemic) [Example 124, (dl)-N-cyclohexyl-N-[3-[4-(methylsulfonyl)phenyl]-2-oxooxazolidin-5-ylmethyl]acetamide] | > 120 | 48.4 | > 200 | > 120 | 16.3 | > 200
CS(=O)(=O)c1ccc(N2CC(CNC(=O)C(Cl)Cl)OC2=O)cc1 (single isomer, unassigned) [Example 22, (l)-2,2-Dichloro-N-[3-[4-(methylsulfonyl)phenyl]-2-oxooxazolidin-5-ylmethyl]acetamide] | 71.1 | 14.2 | 2.4 (≈ 6.3 µM) | 11.8 |  | 9.4 (≈ 24.7 µM)
CS(=O)(=O)NCC1CN(c2ccc(S(C)(=O)=O)cc2)C(=O)O1 (single isomer, unassigned) [Example 25, (l)-N-[3-[4-(Methylsulfonyl)phenyl]-2-oxooxazolidin-5-ylmethyl]methanesulfonamide] |  | > 360 | 100 (≈ 287 µM) | > 100 | 83.6 | > 100
COC(=O)NCC1CN(c2ccc(S(C)(=O)=O)cc2)C(=O)O1 (single isomer, unassigned) [Example 26, (l)-N-[3-[4-(Methylsulfonyl)phenyl]-2-oxooxazolidin-5-ylmethyl]carbamic acid, methyl ester] | 56.2 | 1.7 | 6.3 (≈ 19.2 µM) | 40.7 |  | 100 (≈ 305 µM)
NS(=O)(=O)c1ccc(N2CC(CNC(=O)C(Cl)Cl)OC2=O)cc1 (single isomer, unassigned) [Example 112, (l)-2,2-Dichloro-N-[3-[4-(aminosulfonyl)phenyl]-2-oxooxazolidin-5-ylmethyl]acetamide] | > 360 | > 360 | 12.5 (≈ 32.7 µM) | 62.7 | 14.4 | 50 (≈ 131 µM)
CC(=O)NCC1CN(c2ccc(S(N)(=O)=O)cc2)C(=O)O1 (single isomer, unassigned) [Example 113, (l)-N-[3-[4-(Aminosulfonyl)phenyl]-2-oxooxazolidin-5-ylmethyl]acetamide] | 29.7 | 17.2 | 25 (≈ 79.8 µM) | 11.7 | 9.6 | 100 (≈ 319 µM)
CC(=O)NCC1CN(c2ccc(S(=O)(=O)N=[N+]=[N-])cc2)C(=O)O1 (single isomer, unassigned) [Example 114, (l)-N-[3-(4-Azidosulfonylphenyl)-2-oxooxazolidin-5-ylmethyl]acetamide] | 10.5 | 15.3 | 200 (≈ 589 µM) | 12.5 |  | 200 (≈ 589 µM)
CC(=O)NCC1CN(c2ccc([S+](C)[O-])cc2)C(=O)O1 (single isomer, unassigned) [Example 120, (l)-N-[3-[4-(Methylsulfinyl)phenyl]-2-oxooxazolidin-5-ylmethyl]acetamide] | 11.1 | 3.3 | 10 (≈ 33.7 µM) | 6.1 | 2.8 | > 200
CC(=O)NCC1CN(c2ccc(I)cc2)C(=O)O1 (single isomer, unassigned) [Example 145, (l)-N-[3-(4-Iodophenyl)-2-oxo-5-oxazolidinylmethyl]acetamide] |  | 50 | 12.5 (≈ 34.7 µM) | > 120 | 12.2 | > 200
CC(=O)NCC1CN(c2ccc(C(C)=NO)cc2)C(=O)O1 (single isomer, unassigned) [Example 159, (l)-N-[3-(4-Acetylphenyl)-2-oxooxazolidin-5-ylmethyl]acetamide Oxime] |  | 2.6 | 4 (≈ 13.7 µM) | 71.9 | 1.1 | > 128
CSCc1ccc(N2CC(CNC(C)=O)OC2=O)cc1 (single isomer, unassigned) [Example 163, (l)-N-[3-[4-(Methylthiomethyl)phenyl]-2-oxo-5-oxazolidinylmethyl]acetamide] |  | 5.4 | 2 (≈ 6.79 µM) | 33.3 | 3.2 | > 128
CC(=O)NCC1CN(c2ccc(C[S+](C)[O-])cc2)C(=O)O1 (single isomer, unassigned) [Example 164, (l)-N-[3-[4-(Methylsulfinylmethyl)phenyl]-2-oxo-5-oxazolidinylmethyl]acetamide] |  | 14 | 16 (≈ 51.6 µM) | > 120 | 9.4 | > 128
CC(=O)NCC1CN(c2ccc(C(=O)C[S+](C)[O-])cc2)C(=O)O1 (single isomer, unassigned) [Example 165, (l)-N-[3-[4-(Methylsulfinyl)acetylphenyl]-2-oxo-5-oxazolidinylmethyl]acetamide dihydrate] |  | 16.4 | 12.5 | > 120 | 8.4 | > 200
CCC(=O)NCC1CN(c2ccc(C(C)=O)cc2)C(=O)O1 (single isomer, unassigned) [Example 171, (l)-N-[3-(4-Acetylphenyl)-2-oxo-5-oxazolidinylmethyl]propanamide] |  | 3.3 | 4 (≈ 13.8 µM) | 21.6 | 1.6 | > 128
C#Cc1ccc(N2CC(CNC(C)=O)OC2=O)cc1 (single isomer, unassigned) [Example 182, (l)-N-[3-(4-Ethynylphenyl)-2-oxo-5-oxazolidinylmethyl]acetamide] |  | 16 | 16 (≈ 61.9 µM) | > 120 | 7 | > 128
CC(C)(C)C(=O)NCC1CN(c2ccc(S(C)(=O)=O)cc2)C(=O)O1 (stereo not shown) [Example 30] |  | > 120 | 200 (≈ 564 µM) | > 120 | 57.4 | > 200
COCC(=O)NCC1CN(c2ccc(S(C)(=O)=O)cc2)C(=O)O1 (stereo not shown) [Example 57] | 39 | 10.8 | 12.5 (≈ 36.5 µM) | 12.9 |  | 100 (≈ 292 µM)
C=C(C)c1ccc(N2CC(CNC(C)=O)OC2=O)cc1 (stereo not shown) [Example 97] |  | 4.9 | 3.1 (≈ 11.3 µM) | > 120 | 9.5 | > 200
CCCc1ccc(N2CC(CNC(C)=O)OC2=O)cc1 (stereo not shown) [Example 136] | 100 |  | 6.25 (≈ 22.6 µM) | 100 | < 4.4 | > 200
CC(=O)c1ccc(N2CC(CNC=O)OC2=O)cc1 (stereo not shown) [Example 173] |  | 6.9 | 4 (≈ 15.3 µM) | 79 | 4.5 | > 128
CC(=O)c1ccc(N2CC(CNC(=O)CCl)OC2=O)cc1 (stereo not shown) [Example 174] |  | 8.1 | 1 (≈ 3.22 µM) | > 120 | 12.2 | 32 (≈ 103 µM)
CC(=O)c1ccc(N2CC(CNC(=O)CN=[N+]=[N-])OC2=O)cc1 (stereo not shown) [Example 175] |  | 6.6 | 4 (≈ 12.6 µM) | 73.5 | 8.2 | 128 (≈ 403 µM)
CC(=O)c1ccc(N2CC(CNC(N)=O)OC2=O)cc1 (stereo not shown) [Example 177] |  | 3.7 | 4 (≈ 14.4 µM) | 34 | 2.8 | > 128
COC(=O)NCC1CN(c2ccc(C(C)=O)cc2)C(=O)O1 (stereo not shown) [Example 179] |  | 2 | 4 (≈ 13.7 µM) | 83.1 | 1.7 | 128 (≈ 438 µM)
